Key:
Assay in all cases: relative viability (nuclei count vs DMSO), 5 days (fraction); higher = more cells survive
[1] = tested on: NCI-H1755
Summary of the method: (§1)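 Relative viability was taken as the ratio of nuclei in treated wells to nuclei in vehicle wells. Lung cancer cell lines in 1536-well plates received compounds by pin tool one day after seeding, either one drug alone or a fixed anchor-drug dose plus five library-drug doses (not always all listed) in √10 steps. Nuclei were counted on 4× images after 5 days of treatment, and values are medians of duplicate plates.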

[2] = tested on: NCI-H520
Summary of the method: as §1

[3] = tested on: NCI-H522
Summary of the method: as §1

[4] = tested on: LCLC-103H
Summary of the method: as §1

[5] = tested on: NCI-H441
Summary of the method: as §1

[6] = tested on: NCI-H2347
Summary of the method: as §1

[7] = tested on: SK-MES-1
Summary of the method: as §1

[8] = tested on: NCI-H727
Summary of the method: as §1

[9] = tested on: NCI-H2170
Summary of the method: as §1

[10] = tested on: RERF-LC-KJ
Summary of the method: as §1

[11] = tested on: NCI-H1355
Summary of the method: as §1

[12] = tested on: NCI-H460
Summary of the method: as §1

[13] = tested on: SW 900
Summary of the method: as §1

[14] = tested on: NCI-H322M
Summary of the method: as §1

[15] = tested on: NCI-H650
Summary of the method: as §1

[16] = tested on: NCI-H1651
Summary of the method: as §1

[17] = tested on: NCI-H1792
Summary of the method: as §1

[18] = tested on: NCI-H1915
Summary of the method: as §1

[19] = tested on: NCI-H661
Summary of the method: as §1

[20] = tested on: PC-14
Summary of the method: as §1

[21] = tested on: LXF-289
Summary of the method: as §1

[22] = tested on: NCI-H3122
Summary of the method: as §1

Structure (SMILES): C[C@@H]1CN(CC(=O)Nc2ccc3c(c2)Cc2cccc(-c4cc(=O)cc(N5CCOCC5)o4)c2S3)C[C@H](C)O1 + CC(=O)c1c(C)c2cnc(Nc3ccc(N4CCNCC4)cn3)nc2n(C2CCCC2)c1=O [Palbociclib] (partner 0.5 µM)
- relative viability ([1]; first compound 0.04 µM): 0.475
- relative viability ([1]; first compound 0.1265 µM): 0.449
- relative viability ([1]; first compound 0.4 µM): 0.432
- relative viability ([1]; first compound 4 µM): 0.399
- relative viability ([2]; first compound 0.04 µM): 0.219
- relative viability ([2]; first compound 0.1265 µM): 0.259
- relative viability ([2]; first compound 0.4 µM): 0.172
- relative viability ([2]; first compound 4 µM): 0.215
- relative viability ([3]; first compound 0.04 µM): 0.934
- relative viability ([3]; first compound 0.1265 µM): 0.839
- relative viability ([3]; first compound 0.4 µM): 1.06
- relative viability ([3]; first compound 4 µM): 0.972
- relative viability ([4]; first compound 0.04 µM): 0.441
- relative viability ([4]; first compound 0.1265 µM): 0.47
- relative viability ([4]; first compound 0.4 µM): 0.446
- relative viability ([4]; first compound 4 µM): 0.47
- relative viability ([5]; first compound 0.04 µM): 0.257
- relative viability ([5]; first compound 0.1265 µM): 0.213
- relative viability ([5]; first compound 0.4 µM): 0.223
- relative viability ([5]; first compound 4 µM): 0.227
- relative viability ([6]; first compound 0.04 µM): 0.377
- relative viability ([6]; first compound 0.1265 µM): 0.493
- relative viability ([6]; first compound 0.4 µM): 0.459
- relative viability ([6]; first compound 4 µM): 0.404
- relative viability ([7]; first compound 0.04 µM): 0.35
- relative viability ([7]; first compound 0.1265 µM): 0.323
- relative viability ([7]; first compound 0.4 µM): 0.309
- relative viability ([7]; first compound 4 µM): 0.302
- relative viability ([8]; first compound 0.04 µM): 0.852
- relative viability ([8]; first compound 0.1265 µM): 0.596
- relative viability ([8]; first compound 0.4 µM): 0.679
- relative viability ([8]; first compound 4 µM): 0.675
- relative viability ([9]; first compound 0.04 µM): 0.399
- relative viability ([9]; first compound 0.1265 µM): 0.436
- relative viability ([9]; first compound 0.4 µM): 0.416
- relative viability ([9]; first compound 4 µM): 0.36
- relative viability ([10]; first compound 0.04 µM): 1.03
- relative viability ([10]; first compound 0.1265 µM): 1.05
- relative viability ([10]; first compound 0.4 µM): 1.17
- relative viability ([10]; first compound 4 µM): 0.818
- relative viability ([11]; first compound 0.04 µM): 0.397
- relative viability ([11]; first compound 0.1265 µM): 0.4
- relative viability ([11]; first compound 0.4 µM): 0.404
- relative viability ([11]; first compound 4 µM): 0.385
- relative viability ([12]; first compound 0.04 µM): 0.271
- relative viability ([12]; first compound 0.1265 µM): 0.155
- relative viability ([12]; first compound 0.4 µM): 0.137
- relative viability ([12]; first compound 4 µM): 0.143
- relative viability ([13]; first compound 0.04 µM): 0.532
- relative viability ([13]; first compound 0.1265 µM): 0.472
- relative viability ([13]; first compound 0.4 µM): 0.564
- relative viability ([13]; first compound 4 µM): 0.412
- relative viability ([14]; first compound 0.04 µM): 0.421
- relative viability ([14]; first compound 0.1265 µM): 0.475
- relative viability ([14]; first compound 0.4 µM): 0.506
- relative viability ([14]; first compound 4 µM): 0.522
- relative viability ([15]; first compound 0.04 µM): 0.319
- relative viability ([15]; first compound 0.1265 µM): 0.389
- relative viability ([15]; first compound 0.4 µM): 0.378
- relative viability ([15]; first compound 4 µM): 0.281
- relative viability ([16]; first compound 0.04 µM): 0.543
- relative viability ([16]; first compound 0.1265 µM): 0.502
- relative viability ([16]; first compound 0.4 µM): 0.51
- relative viability ([16]; first compound 4 µM): 0.527
- relative viability ([17]; first compound 0.04 µM): 0.61
- relative viability ([17]; first compound 0.1265 µM): 0.594
- relative viability ([17]; first compound 0.4 µM): 0.658
- relative viability ([17]; first compound 4 µM): 0.563
- relative viability ([18]; first compound 0.04 µM): 0.517
- relative viability ([18]; first compound 0.1265 µM): 0.526
- relative viability ([18]; first compound 0.4 µM): 0.507
- relative viability ([18]; first compound 4 µM): 0.311
- relative viability ([19]; first compound 0.04 µM): 0.404
- relative viability ([19]; first compound 0.1265 µM): 0.442
- relative viability ([19]; first compound 0.4 µM): 0.387
- relative viability ([19]; first compound 4 µM): 0.383
- relative viability ([20]; first compound 0.04 µM): 0.529
- relative viability ([20]; first compound 0.1265 µM): 0.506
- relative viability ([20]; first compound 0.4 µM): 0.568
- relative viability ([20]; first compound 4 µM): 0.423
- relative viability ([21]; first compound 0.04 µM): 0.616
- relative viability ([21]; first compound 0.1265 µM): 0.617
- relative viability ([21]; first compound 0.4 µM): 0.613
- relative viability ([21]; first compound 4 µM): 0.549
- relative viability ([22]; first compound 0.04 µM): 0.214
- relative viability ([22]; first compound 0.1265 µM): 0.201
- relative viability ([22]; first compound 0.4 µM): 0.176
- relative viability ([22]; first compound 4 µM): 0.161

From the supplement of paper PMC10307832
